This note sets out measurements from patent US5137892A, “Quinoline, naphthyridine and pyridobenzoxazine derivatives” (Abbott Laboratories, priority 1990, dated 1992).

Common to all, as to assay: In Vitro Antibacterial Activity, agar dilution MIC
Holding throughout (type): cell-based

In assay [1] the test system is Enterobacter aerogenes ATCC 13048. Particulars: E. aerogenes ATCC 13048; BHI agar dilution, 20-24 hours; unit assumed. The procedure, abridged: (§1)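 Growth inhibition is read as the lowest test concentration showing no growth, a slight haze or sparsely isolated colonies at the inoculum spot counting as none, judged against a drug-free plate. Organisms were spotted at roughly 10^4 CFU onto BHI agar with 2-fold compound dilutions and incubated 20-24 hours at 35°-37° C.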
For orientation: In agar dilution, organisms are placed on agar that contains the substance at set levels.

Another assay deals with Escherichia coli DC-2. Particulars: E. coli DC-2; BHI agar dilution, 20-24 hours; unit assumed. The procedure, abridged: as §1
The subject of a further assay is Escherichia coli JUHL. Conditions: E. coli JUHL; BHI agar dilution, 20-24 hours; unit assumed. The method in brief: as §1
A further assay has as its system Escherichia coli KNK 437. Conditions: E. coli KNK 437; BHI agar dilution, 20-24 hours; unit assumed. The method in brief: as §1
Assay [2] has as its system Providencia stuartii CMX 640. Conditions: P. stuartii CMX 640; BHI agar dilution, 20-24 hours; unit assumed. The procedure, abridged: as §1
The test system of assay [3] is Pseudomonas aeruginosa A5007. Particulars: P. aeruginosa A5007; BHI agar dilution, 20-24 hours; unit assumed. The procedure, abridged: as §1
Assay [4] relates to Pseudomonas aeruginosa BMH10. Conditions: P. aeruginosa BMH10; BHI agar dilution, 20-24 hours; unit assumed. The procedure, abridged: as §1
Assay [5] relates to Staphylococcus aureus ATCC 6538P. Particulars: S. aureus ATCC 6538P; BHI agar dilution, 20-24 hours; unit assumed. The procedure, abridged:
as §1

Assay [6] concerns Streptococcus pyogenes EES61. Particulars: S. pyogenes EES61; BHI agar dilution, 20-24 hours; unit assumed. The method in brief:
as §1

In brackets after ≈: the same amount, converted by molar mass.

As to `CN(C)CC1COC2(CCN(c3nc4c(cc3F)c(=O)c(C(=O)O)cn4-c3ccc(F)cc3F)C2)O1` (stereo not drawn) [Example 445], the MIC values is 3.1 mg/L (≈ 6.15 µM) in assay [1]; 12.5 mg/L (≈ 24.8 µM) in the assay on Escherichia coli DC-2; 1.56 mg/L (≈ 3.09 µM) with Escherichia coli JUHL; 12.5 mg/L (≈ 24.8 µM) against Escherichia coli KNK 437; above 100 mg/L in assay [2]; 12.5 mg/L (≈ 24.8 µM) in [3]. Also, the values for the MIC values in assay [4], in assay [5] and in [6] were 12.5 mg/L (≈ 24.8 µM), 0.2 mg/L (≈ 0.396 µM) and 0.78 mg/L (≈ 1.55 µM), respectively.
